Our source for the Normal melting temperature values is the NIST ThermoML archive (doi:10.1021/je900027h).

For this series the following is noted: Crystal; DTA.

Numbers after ± are expanded uncertainties.

`c1ccc2c(c1)ccc1ccccc12` [phenanthrene]: the Normal melting temperature is 104.92 ± 0.5 °C.
